Assay results published in paper PMC6821309, “Optimization of Insect Odorant Receptor Trafficking and Functional Expression Via Transient Transfection in HEK293 Cells” (Chemical Senses, 2019).

Tests used:
[1] = target: T1, Or56a/Orco (pDmelOR-R.E.hOr56a; mRho.V5.mER.hOr56a + hOrco) (Drosophila melanogaster, UniProt Q9V8Y7); test: Fura-2 calcium imaging, automated platform, response normalized to VUAA1; format: cell-based; details: agonist; 1 mM CaCl2, pH 7.4; 3-parameter logistic fit; transient HEK293
T1 construct: human codon-optimized Or56a with N-terminal mRho.V5.mER tag; N-terminal myc-tagged codon-optimized Orco, spliced chimeric intron; bidirectional vector, transient HEK293; with Odorant receptor coreceptor
T1 sequence (Q9V8Y7 1-419): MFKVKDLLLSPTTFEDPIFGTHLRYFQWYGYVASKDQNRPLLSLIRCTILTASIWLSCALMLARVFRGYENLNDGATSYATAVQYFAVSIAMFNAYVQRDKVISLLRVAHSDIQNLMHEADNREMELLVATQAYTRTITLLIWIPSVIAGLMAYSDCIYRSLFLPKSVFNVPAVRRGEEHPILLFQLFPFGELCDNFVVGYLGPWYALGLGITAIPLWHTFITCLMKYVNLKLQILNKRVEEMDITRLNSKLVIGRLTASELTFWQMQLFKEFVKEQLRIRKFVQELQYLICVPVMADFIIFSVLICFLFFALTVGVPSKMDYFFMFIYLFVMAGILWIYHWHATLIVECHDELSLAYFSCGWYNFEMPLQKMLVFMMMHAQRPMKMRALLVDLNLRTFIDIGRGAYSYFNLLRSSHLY
T1 sequence (Q9VNB5 1-486 partner): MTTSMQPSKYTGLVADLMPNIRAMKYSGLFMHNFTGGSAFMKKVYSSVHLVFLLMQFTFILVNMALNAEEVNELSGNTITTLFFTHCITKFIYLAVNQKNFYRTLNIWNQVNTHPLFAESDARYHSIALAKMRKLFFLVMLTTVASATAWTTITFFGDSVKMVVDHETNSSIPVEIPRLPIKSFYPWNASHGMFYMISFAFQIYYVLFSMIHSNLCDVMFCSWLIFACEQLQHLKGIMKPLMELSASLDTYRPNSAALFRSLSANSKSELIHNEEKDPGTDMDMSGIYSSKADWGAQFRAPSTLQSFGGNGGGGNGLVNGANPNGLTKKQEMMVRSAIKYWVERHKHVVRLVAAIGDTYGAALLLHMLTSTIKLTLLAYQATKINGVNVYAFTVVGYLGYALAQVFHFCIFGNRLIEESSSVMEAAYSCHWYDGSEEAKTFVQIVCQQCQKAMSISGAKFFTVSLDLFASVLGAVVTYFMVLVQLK
Description: Fura-2 calcium imaging, automated platform, response normalized to VUAA1 on Or56a/Orco (pDmelOR-R.E.hOr56a; mRho.V5.mER.hOr56a + hOrco) | or with pDmelOR-R.E.hOr56a and stimulated with geosmin (e)

[2] = target: T2, Or47a/Orco heteromer (pDmelOR-R.E.hOr47a; mRho.V5.mER.hOr47a + hOrco) (Drosophila melanogaster, UniProt P81921); test: as above; format: cell-based; details: agonist; 1 mM CaCl2, pH 7.4; 3-parameter logistic fit; transient HEK293
T2 construct: N-terminal myc-tagged codon-optimized Orco, spliced chimeric intron; bidirectional vector, transient HEK293; with Odorant receptor coreceptor
T2 sequence (P81921 1-385): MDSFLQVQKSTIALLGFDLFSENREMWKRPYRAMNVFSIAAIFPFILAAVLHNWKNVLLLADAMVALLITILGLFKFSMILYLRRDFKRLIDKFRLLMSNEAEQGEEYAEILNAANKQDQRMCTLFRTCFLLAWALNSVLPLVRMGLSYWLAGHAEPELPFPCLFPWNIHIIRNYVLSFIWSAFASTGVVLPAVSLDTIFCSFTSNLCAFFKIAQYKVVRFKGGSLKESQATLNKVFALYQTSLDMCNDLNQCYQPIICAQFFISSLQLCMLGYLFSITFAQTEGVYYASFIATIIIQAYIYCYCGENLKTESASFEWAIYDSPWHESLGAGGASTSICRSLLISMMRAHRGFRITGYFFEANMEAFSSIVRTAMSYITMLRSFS
T2 sequence (Q9VNB5 1-486 partner): T1 sequence (Q9VNB5 1-486 partner)
Description: Fura-2 calcium imaging, automated platform, response normalized to VUAA1 on Or47a/Orco heteromer (pDmelOR-R.E.hOr47a; mRho.V5.mER.hOr47a + hOrco) | transfected with pDmelOR-R.E.hOr47a and stimulated with pentyl acetate (d)

Structure (SMILES) | EC50 [1] | EC50 [2]
CC1CCCC2(C)CCCCC12O (racemic) [geosmin] | 7.19·10^–7 (3.97 × 10^–7; 1.30 × 10^–6) M | 
CCCCCOC(C)=O [pentyl acetate] |  | 2.45·10^–5 (1.83 × 10^–5; 3.29 × 10^–5) M
